Data published in publication PMC10065276, “Enhanced therapeutic window for antimicrobial Pept-ins by investigating their structure-activity relationship” (PLOS ONE, 2023).
Residues, ends and D or L forms follow the SMILES beside them.

Test system: E. coli BL21
Conditions: BL21, 17 h
Method in brief: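 EUCAST broth microdilution in Mueller-Hinton medium; end-exponential culture diluted to 0.005 McF (~1.5x10^6 CFU/mL) before 1:1 mixing with two-fold peptide dilutions (0.75 to 100 μg/mL), triplicates.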

Compared with `CC(C)C[C@H](NC(=O)CNC(=O)[C@H](CCCNC(=N)N)NC(=O)[C@@H]1CCCN1C(=O)[C@H](CCCNC(=N)N)NC(=O)[C@H](CCCNC(=N)N)NC(=O)[C@H](CO)NC(=O)[C@H](CC(C)C)NC(=O)[C@H](C)NC(=O)[C@H](CC(C)C)NC(=O)CNC(=O)[C@H](CC(C)C)NC(=O)CNC(=O)[C@@H](N)CCCNC(=N)N)C(=O)NCC(=O)N[C@@H](CC(C)C)C(=O)N[C@@H](C)C(=O)N[C@@H](CC(C)C)C(=O)N[C@@H](CO)C(=O)N[C@@H](CCCNC(=N)N)C(=O)N[C@@H](CCCNC(=N)N)C(=O)O` [V7S (P2)] (H-RGLGLALSRRPRGLGLALSRR-OH), `CC(C)C[C@H](NC(=O)CNC(=O)[C@H](CCCNC(=N)N)NC(=O)[C@@H]1CCCN1C(=O)[C@H](CCCNC(=N)N)NC(=O)[C@H](CCCNC(=N)N)NC(=O)[C@H](C)NC(=O)[C@H](CC(C)C)NC(=O)[C@H](C)NC(=O)[C@H](CC(C)C)NC(=O)CNC(=O)[C@H](CC(C)C)NC(=O)CNC(=O)[C@@H](N)CCCNC(=N)N)C(=O)NCC(=O)N[C@@H](CC(C)C)C(=O)N[C@@H](C)C(=O)N[C@@H](CC(C)C)C(=O)N[C@H](C(=O)N[C@@H](CCCNC(=N)N)C(=O)N[C@@H](CCCNC(=N)N)C(=O)O)C(C)C` [Peptide P2_V8A] (H-RGLGLALARRPRGLGLALVRR-OH) is 4-fold lower in “BL21 MIC” value: 100.00 µg/mL for the first, 25.00 µg/mL for the second.

`CC(C)C[C@H](NC(=O)CNC(=O)[C@H](CCCNC(=N)N)NC(=O)[C@@H]1CCCN1C(=O)[C@H](CCCNC(=N)N)NC(=O)[C@H](CCCNC(=N)N)NC(=O)[C@@H](NC(=O)[C@H](CC(C)C)NC(=O)[C@H](C)NC(=O)[C@H](CC(C)C)NC(=O)CNC(=O)[C@H](C)NC(=O)CNC(=O)[C@@H](N)CCCNC(=N)N)C(C)C)C(=O)NCC(=O)N[C@@H](CC(C)C)C(=O)N[C@@H](C)C(=O)N[C@@H](CC(C)C)C(=O)N[C@H](C(=O)N[C@@H](CCCNC(=N)N)C(=O)N[C@@H](CCCNC(=N)N)C(=O)O)C(C)C` [Peptide P2_L3A] (H-RGAGLALVRRPRGLGLALVRR-OH) and `CC[C@H](C)[C@H](NC(=O)[C@H](CC(C)C)NC(=O)CNC(=O)[C@H](CC(C)C)NC(=O)CNC(=O)[C@H](CCCNC(=N)N)NC(=O)[C@@H]1CCCN1C(=O)[C@H](CCCNC(=N)N)NC(=O)[C@H](CCCNC(=N)N)NC(=O)[C@@H](NC(=O)[C@H](CC(C)C)NC(=O)[C@H](C)NC(=O)[C@H](CC(C)C)NC(=O)CNC(=O)[C@H](CC(C)C)NC(=O)CNC(=O)[C@@H](N)CCCNC(=N)N)C(C)C)C(=O)N[C@@H](CC(C)C)C(=O)N[C@H](C(=O)N[C@@H](CCCNC(=N)N)C(=O)N[C@@H](CCCNC(=N)N)C(=O)O)C(C)C` [Peptide P2_A5I] (H-RGLGLALVRRPRGLGLILVRR-OH) are the same in “BL21 MIC” value: 12.50 µg/mL for the first, 12.50 µg/mL for the second.

First: CC(C)C[C@H](NC(=O)CNC(=O)[C@H](CCCNC(=N)N)NC(=O)[C@@H]1CCCN1C(=O)[C@H](CCCNC(=N)N)NC(=O)[C@H](C)NC(=O)[C@@H](NC(=O)[C@H](CC(C)C)NC(=O)[C@H](C)NC(=O)[C@H](CC(C)C)NC(=O)CNC(=O)[C@H](CC(C)C)NC(=O)CNC(=O)[C@@H](N)CCCNC(=N)N)C(C)C)C(=O)NCC(=O)N[C@@H](CC(C)C)C(=O)N[C@@H](C)C(=O)N[C@@H](CC(C)C)C(=O)N[C@H](C(=O)N[C@@H](C)C(=O)N[C@@H](CCCNC(=N)N)C(=O)O)C(C)C [R9A, R20A] (H-RGLGLALVARPRGLGLALVAR-OH)
Second: CC(C)C[C@H](NC(=O)CNC(=O)[C@H](CCCNC(=N)N)NC(=O)[C@@H]1CCCN1C(=O)[C@H](CCCNC(=N)N)NC(=O)[C@H](CCCNC(=N)N)NC(=O)[C@@H](NC(=O)[C@H](CC(C)C)NC(=O)[C@H](C)NC(=O)[C@H](CC(C)C)NC(=O)CNC(=O)[C@H](CC(C)C)NC(=O)CNC(=O)[C@@H](N)CCCNC(=N)N)C(C)C)C(=O)NCC(=O)N[C@@H](CC(C)C)C(=O)N[C@@H](C)C(=O)N[C@@H](CC(C)C)C(=O)N[C@H](C(=O)N[C@@H](C)C(=O)N[C@@H](CCCNC(=N)N)C(=O)O)C(C)C [Peptide P2_R20A] (H-RGLGLALVRRPRGLGLALVAR-OH)
The “BL21 MIC” value of the first is 8-fold higher: 50.00 µg/mL for the first, 6.25 µg/mL for the second.

Going from `CC[C@H](C)[C@H](NC(=O)CNC(=O)[C@H](CC(C)C)NC(=O)[C@H](CCCNC(=N)N)NC(=O)[C@@H]1CCCN1C(=O)[C@H](CCCNC(=N)N)NC(=O)[C@H](CCCNC(=N)N)NC(=O)[C@H](CC(C)C)NC(=O)[C@H](C)NC(=O)[C@@H](NC(=O)[C@H](C)NC(=O)[C@@H](NC(=O)CNC(=O)[C@H](CC(C)C)NC(=O)[C@@H](N)CCCNC(=N)N)[C@@H](C)CC)C(C)C)C(=O)N[C@@H](C)C(=O)N[C@H](C(=O)N[C@@H](C)C(=O)N[C@@H](C)C(=O)N[C@@H](CCCNC(=N)N)C(=O)N[C@@H](CCCNC(=N)N)C(=O)O)C(C)C` [Peptide P33-L19A] (H-RLGIAVALRRPRLGIAVAARR-OH) to `CC[C@H](C)[C@H](NC(=O)CNC(=O)[C@H](CC(C)C)NC(=O)[C@H](C)NC(=O)[C@@H]1CCCN1C(=O)[C@H](CCCNC(=N)N)NC(=O)[C@H](CCCNC(=N)N)NC(=O)[C@H](CC(C)C)NC(=O)[C@H](C)NC(=O)[C@@H](NC(=O)[C@H](C)NC(=O)[C@@H](NC(=O)CNC(=O)[C@H](CC(C)C)NC(=O)[C@@H](N)CCCNC(=N)N)[C@@H](C)CC)C(C)C)C(=O)N[C@@H](C)C(=O)N[C@H](C(=O)N[C@@H](C)C(=O)N[C@@H](CC(C)C)C(=O)N[C@@H](C)C(=O)N[C@@H](CCCNC(=N)N)C(=O)O)C(C)C` [Peptide P33_4R_5] (H-RLGIAVALRRPALGIAVALAR-OH), the “BL21 MIC” value rises from 6.25 µg/mL to 12.50 µg/mL (2-fold).

Compared with `CC(C)C[C@H](NC(=O)CNC(=O)[C@H](CCCNC(=N)N)NC(=O)[C@@H](NC(=O)[C@H](C)NC(=O)[C@H](CCCNC(=N)N)NC(=O)[C@@H](NC(=O)[C@H](CC(C)C)NC(=O)[C@H](C)NC(=O)[C@H](CC(C)C)NC(=O)CNC(=O)[C@H](CC(C)C)NC(=O)CNC(=O)[C@@H](N)CCCNC(=N)N)C(C)C)C(C)C)C(=O)NCC(=O)N[C@@H](CC(C)C)C(=O)N[C@@H](C)C(=O)N[C@@H](CC(C)C)C(=O)N[C@H](C(=O)N[C@@H](C)C(=O)N[C@@H](CCCNC(=N)N)C(=O)O)C(C)C` [Peptide P2_4R_V] (H-RGLGLALVRAVRGLGLALVAR-OH), `CC(C)C[C@H](NC(=O)CNC(=O)[C@H](CCCNC(=N)N)NC(=O)[C@@H]1CCCN1C(=O)[C@H](CCCNC(=N)N)NC(=O)[C@H](CCCNC(=N)N)NC(=O)[C@@H](NC(=O)[C@H](CC(C)C)NC(=O)[C@H](C)NC(=O)[C@H](CC(C)C)NC(=O)CNC(=O)[C@H](CC(C)C)NC(=O)CNC(=O)[C@@H](N)CCCNC(=N)N)[C@@H](C)O)C(=O)NCC(=O)N[C@@H](CC(C)C)C(=O)N[C@@H](C)C(=O)N[C@@H](CC(C)C)C(=O)N[C@H](C(=O)N[C@@H](CCCNC(=N)N)C(=O)N[C@@H](CCCNC(=N)N)C(=O)O)[C@@H](C)O` [V7T (P2)] (H-RGLGLALTRRPRGLGLALTRR-OH) is 4-fold higher in “BL21 MIC” value: 12.50 µg/mL for the first, 50.00 µg/mL for the second.

First: CSCC[C@H](NC(=O)[C@H](CC(C)C)NC(=O)CNC(=O)[C@H](CC(C)C)NC(=O)CNC(=O)[C@H](CCCNC(=N)N)NC(=O)[C@@H]1CCCN1C(=O)[C@H](CCCNC(=N)N)NC(=O)[C@H](CCCNC(=N)N)NC(=O)[C@@H](NC(=O)[C@H](CC(C)C)NC(=O)[C@H](CCSC)NC(=O)[C@H](CC(C)C)NC(=O)CNC(=O)[C@H](CC(C)C)NC(=O)CNC(=O)[C@@H](N)CCCNC(=N)N)C(C)C)C(=O)N[C@@H](CC(C)C)C(=O)N[C@H](C(=O)N[C@@H](CCCNC(=N)N)C(=O)N[C@@H](CCCNC(=N)N)C(=O)O)C(C)C [A5M (P2)] (H-RGLGLMLVRRPRGLGLMLVRR-OH)
Second: CC(C)C[C@H](NC(=O)CNC(=O)[C@H](CC(C)C)NC(=O)CNC(=O)[C@H](CCCNC(=N)N)NC(=O)[C@@H]1CCCN1C(=O)[C@H](CCCNC(=N)N)NC(=O)[C@H](CCCNC(=N)N)NC(=O)[C@@H](NC(=O)[C@H](CC(C)C)NC(=O)CNC(=O)[C@H](CC(C)C)NC(=O)CNC(=O)[C@H](CC(C)C)NC(=O)CNC(=O)[C@@H](N)CCCNC(=N)N)C(C)C)C(=O)NCC(=O)N[C@@H](CC(C)C)C(=O)N[C@H](C(=O)N[C@@H](CCCNC(=N)N)C(=O)N[C@@H](CCCNC(=N)N)C(=O)O)C(C)C [A5G (P2)] (H-RGLGLGLVRRPRGLGLGLVRR-OH)
The “BL21 MIC” value of the first is 4-fold lower: 6.25 µg/mL for the first, 25.00 µg/mL for the second.

Going from `CC(C)C[C@H](NC(=O)CNC(=O)[C@H](CCCNC(=N)N)NC(=O)[C@@H]1CCCN1C(=O)[C@H](CCCNC(=N)N)NC(=O)[C@H](CCCNC(=N)N)NC(=O)[C@@H](NC(=O)[C@H](CC(C)C)NC(=O)[C@H](Cc1ccccc1)NC(=O)[C@H](CC(C)C)NC(=O)CNC(=O)[C@H](CC(C)C)NC(=O)CNC(=O)[C@@H](N)CCCNC(=N)N)C(C)C)C(=O)NCC(=O)N[C@@H](CC(C)C)C(=O)N[C@@H](Cc1ccccc1)C(=O)N[C@@H](CC(C)C)C(=O)N[C@H](C(=O)N[C@@H](CCCNC(=N)N)C(=O)N[C@@H](CCCNC(=N)N)C(=O)O)C(C)C` [A5F (P2)] (H-RGLGLFLVRRPRGLGLFLVRR-OH) to `CC(C)C[C@H](NC(=O)CNC(=O)[C@H](CCCNC(=N)N)NC(=O)[C@@H]1CCCN1C(=O)[C@H](CCCNC(=N)N)NC(=O)[C@H](CCCNC(=N)N)NC(=O)[C@@H](NC(=O)[C@H](CC(C)C)NC(=O)[C@H](C)NC(=O)[C@H](CC(C)C)NC(=O)CNC(=O)[C@H](CC(C)C)NC(=O)CNC(=O)[C@@H](N)CCCNC(=N)N)C(C)C)C(=O)NCC(=O)N[C@@H](CC(C)C)C(=O)N[C@@H](Cc1c[nH]c2ccccc12)C(=O)N[C@@H](CC(C)C)C(=O)N[C@H](C(=O)N[C@@H](CCCNC(=N)N)C(=O)N[C@@H](CCCNC(=N)N)C(=O)O)C(C)C` [Peptide P2_A5W] (H-RGLGLALVRRPRGLGLWLVRR-OH), the “BL21 MIC” value falls from 12.50 µg/mL to 6.25 µg/mL (2-fold).

`CC(C)C[C@H](NC(=O)CNC(=O)[C@H](CCCNC(=N)N)NC(=O)[C@@H]1CCCN1C(=O)[C@H](CCCNC(=N)N)NC(=O)[C@H](CCCNC(=N)N)NC(=O)[C@@H](NC(=O)[C@H](CC(C)C)NC(=O)[C@H](CC(=O)O)NC(=O)[C@H](CC(C)C)NC(=O)CNC(=O)[C@H](CC(C)C)NC(=O)CNC(=O)[C@@H](N)CCCNC(=N)N)C(C)C)C(=O)NCC(=O)N[C@@H](CC(C)C)C(=O)N[C@@H](CC(=O)O)C(=O)N[C@@H](CC(C)C)C(=O)N[C@H](C(=O)N[C@@H](CCCNC(=N)N)C(=O)N[C@@H](CCCNC(=N)N)C(=O)O)C(C)C` [P2_zero_tango_5] (H-RGLGLDLVRRPRGLGLDLVRR-OH) was tested, and the “BL21 MIC” value was >100.00 µg/mL.
